Reference: PMC2655291 (BMC Structural Biology, 2009)
Like-named read-outs stand apart in the source and are kept apart here.

Tests used:
[1] = biological target: T1, quinone reductase 2 (NQO2) (Homo sapiens, UniProt P16083)
T1 sequence (P16083 1-231): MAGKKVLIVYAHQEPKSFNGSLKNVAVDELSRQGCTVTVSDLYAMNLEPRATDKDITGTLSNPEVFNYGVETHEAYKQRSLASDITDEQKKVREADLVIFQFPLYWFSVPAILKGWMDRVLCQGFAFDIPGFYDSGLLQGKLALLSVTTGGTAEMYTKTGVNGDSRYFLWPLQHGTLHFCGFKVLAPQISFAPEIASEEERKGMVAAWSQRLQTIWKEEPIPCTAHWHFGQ

[2] = biological target: T1, quinone reductase 2 (NQO2); remark: listed apart in the source
NQO2 S16D mutant (human) = test: SEC; analytical gel filtration of the purified mutant (data not shown); monomer and dimer

Cc1cn(-c2cc(NC(=O)c3ccc(C)c(Nc4nccc(-c5cccnc5)n4)c3)cc(C(F)(F)F)c2)cn1 [nilotinib]
IC50 [1]: 381 nM

O=c1c(O)c(-c2ccc(O)c(O)c2)oc2cc(O)cc(O)c12 [quercetin]
IC50 [2]: 42 nM

NQO2 S16D mutant (enzyme)
stoichiometry N (NQO2 S16D mutant (human)): 2
